Results published in article PMC12040169 (PLOS Biology, 2025).

assay: in vitro; conditions: human, hela cells, % viability

SMILES | viability at 28.5 h, 10 µM
c1ccc(N2CCN(c3cc(-c4cc5ccccc5s4)ncn3)CC2)nc1 [CBK091084] | 102%
O=[N+]([O-])c1cccc(-c2cc(NCCc3ccccn3)ncn2)c1 [CBK091087] | 96.7%
Nc1ccc(C(=O)Nc2ccc(Nc3cc(-c4cc(C(F)(F)F)cc(C(F)(F)F)c4)ncn3)cc2)cc1 [CBK091091] | 94.8%
Nc1ccc(C(=O)Nc2ccc(Nc3cc(-c4ccccc4OCc4ccccc4)ncn3)cc2)cc1 [CBK091092] | 94.4%
O=C(c1ccco1)N1CCN(c2cc(-c3cccc4cccnc34)ncn2)CC1 [CBK091117] | 99.1%
COc1cncc(-c2cc(N3CCN(C(=O)c4ccco4)CC3)ncn2)c1 [CBK091121] | 97.4%
CN(C(=O)CN1CCN(c2cc(-c3ccsc3)ncn2)CC1)c1ccccc1 [CBK091129] | 99.7%
CN(C(=O)CN1CCN(c2cc(-c3cccc4oc5ccccc5c34)ncn2)CC1)c1ccccc1 [CBK091130] | 97.8%
CC(=O)Nc1cccc(-c2cc(N3CCN(CC(=O)N(C)c4ccccc4)CC3)ncn2)c1 [CBK091134] | 99.7%
CN(C(=O)CN1CCN(c2cc(-c3cccc([N+](=O)[O-])c3)ncn2)CC1)c1ccccc1 [CBK091137] | 103%
Cc1ccc(Nc2cc(-c3ccsc3)ncn2)cc1NS(C)(=O)=O [CBK091149] | 97.9%
Cc1ccc(Nc2cc(-c3cccc4oc5ccccc5c34)ncn2)cc1NS(C)(=O)=O [CBK091150] | 93.6%
COc1cncc(-c2cc(N3CCN(S(=O)(=O)c4ccc(Cl)cc4)CC3)ncn2)c1 [CBK091162] | 108%
CC(=O)c1ccc(-c2cc(N3CCN(CCN4CCCC4)CC3)ncn2)s1 [CBK091169] | 98.8%
COc1cc(CNc2cc(-c3ccco3)ncn2)cc(OC)c1OC [CBK091181] | 106%
COc1cncc(-c2cc(NCc3cc(OC)c(OC)c(OC)c3)ncn2)c1 [CBK091183] | 88.4%
COc1ccc(-c2cc(NCc3cc(OC)c(OC)c(OC)c3)ncn2)cc1 [CBK091184] | 90%
COc1cc(CNc2cc(-c3ccc(NC(C)=O)cc3)ncn2)cc(OC)c1OC [CBK091185] | 93.6%
N#CCc1ccc(Nc2cc(-c3cccc(N)c3)ncn2)cc1 [CBK091187] | 96.7%
CCN(CC)CCN1CCN(c2cc(-c3cc(C(F)(F)F)cc(C(F)(F)F)c3)ncn2)CC1 [CBK091195] | 94%
CC(=O)c1cccc(-c2cnc(Nc3ccc(N4CCOCC4)cc3)c3nccn23)c1 [CBK091217] | 91.5%
COc1cc(CNc2ncc(-c3ccc(N4CCOCC4)cc3)n3ccnc23)cc(OC)c1OC [CBK091219] | 100%
c1coc(CNc2ncc(-c3ccc(N4CCOCC4)cc3)n3ccnc23)c1 [CBK091220] | 102%
CN(C)c1cccc(Nc2ncc(-c3ccc(N4CCOCC4)cc3)n3ccnc23)c1 [CBK091222] | 94.5%
O=C(c1ccco1)N1CCN(c2ncc(-c3ccc(N4CCOCC4)cc3)n3ccnc23)CC1 [CBK091225] | 92.6%
Clc1ccc(CNc2ncc(-c3ccc(N4CCOCC4)cc3)n3ccnc23)cc1Cl [CBK091229] | 84.3%
CC(=O)c1ccc(-c2cnc(Nc3ccc(N4CCOCC4)cc3)c3nccn23)s1 [CBK091231] | 95.3%

SMILES | viability at 28.5 h, 10 µM
COc1ccc(-c2cnc(Nc3ccc(N4CCOCC4)cc3)c3nccn23)cn1 [CBK091238] | 92%
CCCC/C=C/c1cnc(Nc2ccc(N3CCOCC3)cc2)c2nccn12 [CBK091239] | 91.3%
COc1ccc(NC(=O)c2ccc(-c3cnc(Nc4ccc(N5CCOCC5)cc4)c4nccn34)cc2)cc1 [CBK091240] | 96.7%
CCCC/C=C/c1cnc(N2CCOCC2)c2nccn12 [CBK091256] | 102%
O=C(O)/C=C/c1cccc(-c2cnc(N3CCOCC3)c3nccn23)c1 [CBK091263] | 104%
OCc1ccccc1-c1cnc(N2CCOCC2)c2nccn12 [CBK091265] | 110%
c1cc(-c2cnc(N3CCOCC3)c3nccn23)c2cccnc2c1 [CBK091270] | 93.6%
COc1ccc(-c2cnc(N3CCOCC3)c3nccn23)cc1 [CBK091285] | 87.2%
c1cn2c(-c3ccoc3)cnc(N3CCOCC3)c2n1 [CBK091292] | 88.7%
CC(=O)NCCCCCC(=O)N1CCN(c2ccc(C(F)(F)F)cc2)CC1 [CBK091312] | 92.8%
COc1ccccc1C1OC(=O)CC1C(=O)N1CCN(c2ccc(C(F)(F)F)cc2)CC1 (centres unmarked) [CBK091313] | 111%
Cc1ccc(S(=O)(=O)NCC(=O)N2CCN(c3ccc(Cl)cc3)CC2)cc1 [CBK091315] | 93.3%
COc1ccccc1C1OC(=O)CC1C(=O)N1CCN(c2ccc(Cl)cc2)CC1 (centres unmarked) [CBK091332] | 86.2%
CC(=O)N[C@H](Cc1c[nH]c2ccccc12)C(=O)N1CCN(c2ccc(C)cc2)CC1 [CBK091333] | 91.1%
CCC(C)(C)C(=O)Nc1ccc(Cl)nc1 [CBK091334] | 96.4%
O=C(Nc1ccc(Cl)nc1)C(F)(F)F [CBK091339] | 101%
Cc1ccccc1C(=O)NCC(=O)Nc1ccc(Br)c2ccccc12 [CBK091343] | 98%
O=C(CC1CCCCC1)Nc1ccc(Cl)nc1 [CBK091349] | 83.5%
COC(C)(C(=O)Nc1ccc(Cl)nc1)c1cccc2ccccc12 (centres unmarked) [CBK091350] | 102%
Cc1ccc(S(=O)(=O)NCC(=O)Nc2ccc(Cl)nc2)cc1 [CBK091355] | 96.1%
COc1ccc(C(N)C2(O)CCN(Cc3ccccc3)CC2)cc1 (centres unmarked) [CBK091386] | 107%
COc1ccc(N2CCN(C(=O)CCC(=O)c3cccs3)CC2)cc1 [CBK091413] | 94.3%
CCCCC(CC)C(=O)N1CCN(c2ccc(OC)cc2)CC1 (centres unmarked) [CBK091414] | 99.9%
COc1ccc(N2CCN(C(=O)CCC(F)(F)F)CC2)cc1 [CBK091419] | 100%
CC(C)Nc1cncc(Sc2cccc(N)c2)n1 [CBK091434] | 108%
CC(C)Nc1cncc(Sc2ccccc2O)n1 [CBK091438] | 88%
COc1ccccc1N1CCN(C(=O)CCC(=O)c2cccs2)CC1 [CBK091498] | 109%

same assay, conditions: human, hela cells, % viability, bulk resorufin, single well

SMILES | viability at 28.5 h, 10 µM
COc1ccccc1C1OC(=O)CC1C(=O)N1CCC(C(C)=O)(c2ccccc2)CC1 (centres unmarked) [CBK091324] | 104%
CC(=O)C1(c2ccccc2)CCN(C(=O)CNS(=O)(=O)c2ccc(C)cc2)CC1 [CBK091328] | 92.5%
N#CC1(c2ccccc2)CCN(C(=O)c2ccc([N+](=O)[O-])o2)CC1 [CBK091389] | 95.7%
CC(=O)[C@H]1C[C@@H](CC(=O)N2CCC(C#N)(c3ccccc3)CC2)C1(C)C [CBK091393] | 91.5%
N#CC1(c2ccccc2)CCN(C(=O)CCC(F)(F)F)CC1 [CBK091399] | 97.7%
CC(C)(C)OC(=O)NCCCCC(=O)N1CCC(C#N)(c2ccccc2)CC1 [CBK091401] | 89.4%
CC1CC1C(=O)N1CCC(C#N)(c2ccccc2)CC1 (centres unmarked) [CBK091402] | 99%
COc1ccc(-c2ccc3c(c2)OC2(CCNCC2)O3)c(OC)c1 [CBK091451] | 93.2%
